# Assay results reported in US20090325957A1, “MORPHOLINO PYRIMIDINE DERIVATIVES USEFUL IN THE TREATMENT OF PROLIFERATIVE DISORDERS” (ASTRAZENECA AB, priority 2006, published 2009).
# Several values for one entry are separate records, joined by “and”; a condition that tells them apart may be missing. Identical values can stand only once.
# Target: recombinant mTOR (Homo sapiens, UniProt P42345)
# Test: In vitro mTOR kinase assay (AlphaScreen), Test (a)
# Type: biochemical
# Conditions: average value; read-out: Test (a) average IC50
# Protocol: (a) In Vitro mTOR Kinase Assay
# The assay used AlphaScreen technology (Gray et al., Analytical Biochemistry, 2003, 313: 234-245) to determine the ability of test compounds to inhibit phosphorylation by recombinant mTOR.
# The HEK293 FLAG-tagged mTOR (1362-2549) stable cell line was routinely maintained at 37° C. with 5% CO2 up to a confluency of 70-90% in Dulbecco's modified Eagle's growth medium (DMEM; Invitrogen Limited, Paisley, UK Catalogue No. 41966-029) containing 10% heat-inactivated foetal calf serum (FCS; Sigma, Poole, Dorset, UK, Catalogue No. F0392), 1% L-glutamine (Gibco, Catalogue No. 25030-024) and 2 mg/ml Geneticin (G418 sulfate; Invitrogen Limited, UK Catalogue No. 10131-027). Following expression in the mammalian HEK293 cell line, expressed protein was purified using the FLAG epitope tag using standard purification techniques.
# Test compounds were prepared as 10 mM stock solutions in DMSO and diluted into water as required to give a range of final assay concentrations. Aliquots (2 μl) of each compound dilution were placed into a well of a Greiner 384-well low volume (LV) white polystyrene plate (Greiner Bio-one).
# Control wells that produced a maximum signal corresponding to maximum enzyme activity were created by using 5% DMSO instead of test compound. […] These assay solutions were incubated for 2 hours at room temperature.
# Each reaction was stopped by the addition of 10 μl of a mixture of EDTA (50 mM), bovine serum albumin (BSA; 0.5 mg/mL) and Tris-HCl pH7.4 buffer (50 mM) containing
# p70 S6 Kinase (T389) 1A5 Monoclonal Antibody (Cell Signalling Technology, Catalogue No. 9206B) and AlphaScreen Streptavidin donor and Protein A acceptor beads (200 ng; Perkin Elmer, Catalogue No. 6760002B and 6760137R respectively) were added and the assay plates were left for about 20 hours at room temperature in the dark. The resultant signals arising from laser light excitation at 680 nm were read using a Packard Envision instrument.
# Phosphorylated biotinylated peptide is formed in situ as a result of mTOR mediated phosphorylation. The phosphorylated biotinylated peptide that is associated with AlphaScreen Streptavidin donor beads forms a complex with the p70 S6 Kinase (T389) 1A5 Monoclonal Antibody that is associated with Alphascreen Protein A acceptor beads. Upon laser light excitation at 680 nm, the donor bead: acceptor bead complex produces a signal that can be measured. Accordingly, the presence of mTOR kinase activity results in an assay signal. In the presence of an mTOR kinase inhibitor, signal strength is reduced.
# mTOR enzyme inhibition for a given test compound was expressed as an IC50 value.
# Chain of recombinant mTOR (P42345 1362-2549): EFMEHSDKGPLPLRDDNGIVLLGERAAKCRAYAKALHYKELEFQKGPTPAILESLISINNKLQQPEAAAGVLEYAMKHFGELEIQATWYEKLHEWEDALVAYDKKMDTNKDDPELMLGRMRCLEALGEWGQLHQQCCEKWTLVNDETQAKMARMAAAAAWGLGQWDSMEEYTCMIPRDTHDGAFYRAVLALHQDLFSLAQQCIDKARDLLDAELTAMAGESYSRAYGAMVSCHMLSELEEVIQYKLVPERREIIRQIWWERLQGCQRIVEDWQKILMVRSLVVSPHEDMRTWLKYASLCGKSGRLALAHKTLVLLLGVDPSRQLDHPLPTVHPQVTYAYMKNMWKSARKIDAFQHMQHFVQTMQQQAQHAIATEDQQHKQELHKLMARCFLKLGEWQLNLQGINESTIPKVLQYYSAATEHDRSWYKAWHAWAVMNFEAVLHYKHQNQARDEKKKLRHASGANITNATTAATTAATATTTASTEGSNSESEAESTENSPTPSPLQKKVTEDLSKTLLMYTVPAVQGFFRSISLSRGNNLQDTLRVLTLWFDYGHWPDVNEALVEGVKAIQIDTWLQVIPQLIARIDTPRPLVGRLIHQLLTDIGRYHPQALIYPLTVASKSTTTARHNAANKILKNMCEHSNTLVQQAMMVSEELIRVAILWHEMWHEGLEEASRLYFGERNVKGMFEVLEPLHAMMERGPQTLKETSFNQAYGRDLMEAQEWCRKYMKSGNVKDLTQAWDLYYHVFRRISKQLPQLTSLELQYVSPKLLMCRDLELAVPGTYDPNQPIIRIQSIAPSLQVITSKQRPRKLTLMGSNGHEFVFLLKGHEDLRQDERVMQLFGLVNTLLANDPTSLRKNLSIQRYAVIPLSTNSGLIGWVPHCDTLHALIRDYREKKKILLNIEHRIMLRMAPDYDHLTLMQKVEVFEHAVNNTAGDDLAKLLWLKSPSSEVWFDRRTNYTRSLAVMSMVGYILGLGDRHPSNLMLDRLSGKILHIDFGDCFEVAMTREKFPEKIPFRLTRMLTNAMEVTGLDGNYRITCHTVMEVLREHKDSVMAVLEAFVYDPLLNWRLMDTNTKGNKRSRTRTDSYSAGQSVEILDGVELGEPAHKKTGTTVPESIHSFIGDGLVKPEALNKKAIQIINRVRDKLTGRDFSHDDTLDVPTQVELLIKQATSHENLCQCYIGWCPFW
row,IC50,Compound
1,7.1 µM,"CS(=O)(=O)Cc1cc(N2CCOCC2)nc(-c2ccc(NS(=O)(=O)Cc3ccc(F)cc3)cc2)n1 [Example 3d, 1-(4-fluorophenyl)-N-[4-[4-(methylsulfonylmethyl)-6-morpholin-4-yl-pyrimidin-2-yl]phenyl]methanesulfonamide]"
2,4 µM,"CCCS(=O)(=O)Nc1ccc(-c2nc(CS(C)(=O)=O)cc(N3CCOCC3)n2)cc1 [Example 3b, N-[4-[4-(methylsulfonylmethyl)-6-morpholin-4-yl-pyrimidin-2-yl]phenyl]propane-1-sulfonamide]"
3,1.4 µM,"CCS(=O)(=O)Nc1ccc(-c2nc(CS(C)(=O)=O)cc(N3CCOCC3)n2)cc1 [Example 3a, N-[4-[4-(methylsulfonylmethyl)-6-morpholin-4-yl-pyrimidin-2-yl]phenyl]ethanesulfonamide]"
4,6 µM,"CCCCS(=O)(=O)Nc1ccc(-c2nc(CS(C)(=O)=O)cc(N3CCOCC3)n2)cc1 [Example 3c, N-[4-[4-(methylsulfonylmethyl)-6-morpholin-4-yl-pyrimidin-2-yl]phenyl]butane-1-sulfonamide]"

# Second part, the compound before the results:
row,Compound,IC50
1,"CS(=O)(=O)Cc1cc(N2CCOCC2)nc(-c2ccc(NS(C)(=O)=O)c(CO)c2)n1 [Example 1, N-[2-(Hydroxymethyl)-4-[4-(methylsulfonylmethyl)-6-morpholin-4-yl-pyrimidin-2-yl]phenyl]methanesulfonamide]",5 µM
2,"C[C@H]1COCCN1c1cc(CS(C)(=O)=O)nc(-c2ccc(CNS(C)(=O)=O)cc2)n1 [Example 5, N-[[4-[4-[(3S)-3-Methylmorpholin-4-yl]-6-(methylsulfonylmethyl)pyrimidin-2-yl]phenyl]methyl]methanesulfonamide]",4.5 µM
3,"CS(=O)(=O)Cc1cc(N2CCOCC2)nc(-c2ccc(NS(C)(=O)=O)cc2)n1 [Example 4, N-[4-[4-(Methylsulfonylmethyl)-6-morpholin-4-yl-pyrimidin-2-yl]phenyl]methanesulfonamide]",2.6 µM
4,"CS(=O)(=O)Cc1cc(N2CCOCC2)nc(-c2ccc(NS(=O)(=O)C3CC3)cc2)n1 [Example 3, N-[4-[4-(Methylsulfonylmethyl)-6-morpholin-4-yl-pyrimidin-2-yl]phenyl]cyclopropanesulfonamide]",0.88 µM
5,"C[C@H]1COCCN1c1cc(CS(C)(=O)=O)nc(-c2ccc(NS(C)(=O)=O)cc2)n1 [Example 6, N-[4-[4-[(3S)-3-Methylmorpholin-4-yl]-6-(methylsulfonylmethyl)pyrimidin-2-yl]phenyl]methanesulfonamide]",1 µM
6,"CS(=O)(=O)Cc1cc(N2CCOCC2)nc(-c2ccc(CNS(C)(=O)=O)cc2)n1 [Example 2, N-[[4-[4-(Methylsulfonylmethyl)-6-morpholin-4-yl-pyrimidin-2-yl]phenyl]methyl]methanesulfonamide]",6.8 µM

# Same assay, conditions: single values, measured on three occasions; read-out: IC50 versus mTOR kinase
row,IC50,Compound
1,3.32 µM and 2.49 µM and 2.25 µM,"CS(=O)(=O)Cc1cc(N2CCOCC2)nc(-c2ccc(NS(C)(=O)=O)cc2)n1 [Example 4, N-[4-[4-(Methylsulfonylmethyl)-6-morpholin-4-yl-pyrimidin-2-yl]phenyl]methanesulfonamide]"
